Results: patent US11292002B2, “Surfactant additives for digital microfluidic devices for high protein content droplets transport” (THE GOVERNING COUNCIL OF THE UNIVERSITY OF TORONTO, priority 2016, dated 2022)

Target: BSA (Bos taurus, UniProt P02769)
Assay: Circular dichroism (CD) spectra of BSA with surfactant
Type: physicochemical, bovine
Settings: 0.1 g·L^−1 BSA; 1, 2, 2.5, 4, or 6 mM SDS
Description: Resolution of CD is ±0.1 degree.
Surfactant-protein complexation is often associated with molecular rearrangement of the protein (i.e., change in protein conformation). […] Protein conformation changes can be probed using circular dichroism (CD) experiments, as illustrated in FIG. 5.

BSA, sequence (P02769 25-607): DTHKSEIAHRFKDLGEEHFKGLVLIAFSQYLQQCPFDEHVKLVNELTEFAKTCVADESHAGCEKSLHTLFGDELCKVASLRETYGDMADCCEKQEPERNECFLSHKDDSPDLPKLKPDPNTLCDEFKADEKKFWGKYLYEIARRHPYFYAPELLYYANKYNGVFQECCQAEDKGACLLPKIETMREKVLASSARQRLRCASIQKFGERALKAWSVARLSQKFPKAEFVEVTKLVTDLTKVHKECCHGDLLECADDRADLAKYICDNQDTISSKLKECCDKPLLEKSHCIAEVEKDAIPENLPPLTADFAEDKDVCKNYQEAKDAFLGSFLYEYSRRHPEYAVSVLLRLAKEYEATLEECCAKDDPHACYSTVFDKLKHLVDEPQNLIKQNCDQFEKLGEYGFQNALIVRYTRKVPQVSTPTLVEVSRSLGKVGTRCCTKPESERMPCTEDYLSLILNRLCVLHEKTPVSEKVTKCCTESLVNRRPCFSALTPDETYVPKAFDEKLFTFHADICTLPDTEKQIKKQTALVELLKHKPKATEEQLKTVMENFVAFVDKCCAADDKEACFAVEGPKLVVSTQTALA

## CCCCCCCCCCCCOS(=O)(=O)[O-].[Na+] [SDS, sodium dodecyl sulfate]
  CD spectrum of BSA with surfactant compared with BSA alone: distinctly different CD spectrum
